Data on 22 compounds can be found in patent publication US9815831B2, “3,5-disubstituted-3H-imidazo[4,5-B]pyridine and 3,5-disubstituted-3H-[1,2,3]triazolo[4,5-B] pyridine compounds as modulators of c-Met protein kinases” (Rhizen Pharmaceuticals SA, priority 2012, dated 2017).

Assay [1] relates to MKN-45. Nature of the assay: Inhibition of MKN-45 proliferation (MTT). In kind it is cell-based, human. The following applies: MKN-45 proliferation; for GI50: read-out: MKN45 GI50. The method, then: 3. Inhibition of MKN-45 Proliferation:
Cell proliferation assays were carried out using the high Met expressing human gastric adenocarcinoma cell line, MKN-45, according to the following schedule: • Day 1: Cells were plated in 96-well plates in complete growth medium. • Day 2: Compounds at desired concentrations were added. • Day 5: Cell viability was determined using the 3-[4,5-dimethylthiazol-2-yl]-2,5-diphenyltetrazolium bromide (MTT) dye reduction test. Results: The results are as given as % Inhibition of MKN-45 proliferation at 100 nM and GI50 values in Table 4A to 4C above. 4. Inhibition of c-Met Kinase Phosphorylation in MKN-45 Cells: […]

In assay [2] the target is T1, human recombinant Met kinase (Homo sapiens, UniProt P08581).
T1 construct: purchased Cell Signalling Technology, Beverly, Mass
T1 sequence (P08581 25-1390): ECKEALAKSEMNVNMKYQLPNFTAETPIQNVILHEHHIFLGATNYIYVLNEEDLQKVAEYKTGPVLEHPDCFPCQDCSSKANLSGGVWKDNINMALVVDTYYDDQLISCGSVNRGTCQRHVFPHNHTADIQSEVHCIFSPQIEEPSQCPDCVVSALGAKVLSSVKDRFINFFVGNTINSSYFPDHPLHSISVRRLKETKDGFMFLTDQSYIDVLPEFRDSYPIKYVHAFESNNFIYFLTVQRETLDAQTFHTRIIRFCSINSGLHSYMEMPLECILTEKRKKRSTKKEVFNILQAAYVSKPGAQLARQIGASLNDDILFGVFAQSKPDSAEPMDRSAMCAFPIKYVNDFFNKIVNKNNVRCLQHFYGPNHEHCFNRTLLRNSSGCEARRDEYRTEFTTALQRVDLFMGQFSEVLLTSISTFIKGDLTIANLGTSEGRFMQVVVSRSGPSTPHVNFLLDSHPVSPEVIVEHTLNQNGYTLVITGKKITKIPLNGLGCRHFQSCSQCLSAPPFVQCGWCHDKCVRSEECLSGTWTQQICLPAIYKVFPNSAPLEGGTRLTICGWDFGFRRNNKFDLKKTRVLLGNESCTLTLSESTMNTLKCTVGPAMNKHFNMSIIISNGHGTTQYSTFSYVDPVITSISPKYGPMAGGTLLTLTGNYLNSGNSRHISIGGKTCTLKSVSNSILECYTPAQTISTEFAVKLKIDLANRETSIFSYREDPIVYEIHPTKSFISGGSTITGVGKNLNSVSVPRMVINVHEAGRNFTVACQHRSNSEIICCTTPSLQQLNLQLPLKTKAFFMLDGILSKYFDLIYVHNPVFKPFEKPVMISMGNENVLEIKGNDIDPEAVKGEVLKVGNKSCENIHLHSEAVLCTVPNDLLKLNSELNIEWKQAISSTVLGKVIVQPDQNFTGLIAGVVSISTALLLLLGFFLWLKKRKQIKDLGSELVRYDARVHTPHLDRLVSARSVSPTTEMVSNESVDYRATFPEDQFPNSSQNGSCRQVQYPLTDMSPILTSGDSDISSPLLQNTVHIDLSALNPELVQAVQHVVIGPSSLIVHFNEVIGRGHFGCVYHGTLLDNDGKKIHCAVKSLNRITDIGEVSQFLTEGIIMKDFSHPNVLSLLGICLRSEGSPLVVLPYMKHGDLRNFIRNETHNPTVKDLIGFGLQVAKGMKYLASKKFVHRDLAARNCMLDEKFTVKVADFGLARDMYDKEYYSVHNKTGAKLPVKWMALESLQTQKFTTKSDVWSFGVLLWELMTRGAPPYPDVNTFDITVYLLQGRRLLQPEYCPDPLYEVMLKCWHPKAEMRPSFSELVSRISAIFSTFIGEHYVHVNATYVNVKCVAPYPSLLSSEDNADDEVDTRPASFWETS
Nature of the assay: Colorimetric determination of c-Met kinase activity (HTScan Met Kinase Assay Kit). The assay is classed as biochemical. Conditions: for inhibition at 0.1 µM: 100 nM (cells without *), read-out: c-Met Enzyme % inhibition @ 100 nM; for inhibition: cells marked *: tested @ 300 nM, read-out: c-Met Enzyme % inhibition. An excerpt: 1. MET Kinase Assay Protocol:
Colorimetric Determination of c-Met Kinase Activity
The receptor tyrosine kinase c-Met is a heterodimeric transmembrane glycoprotein involved in several cellular processes that aid in tumor progression. Phosphorylation of the tyrosine residues in the c-Met kinase domain is critical for its activity and the resulting down-stream effects. The colorimetric assay allows detection of the phosphorylated form of a biotinylated peptide upon activation of human recombinant Met kinase.
MET Kinase Assay Protocol:
c-Met Kinase activity shall be determined using an HTScan® Met Kinase Assay Kit (Cell Signalling Technology, Beverly, Mass.) with modifications. All incubations are carried out at room temperature. Briefly, 12.5 μl of a 4× reaction cocktail (DTT/Kinase buffer containing appropriate quantity of human Met kinase) is added to each well of a 96-well plate containing 12.5 μl pre-diluted compound of interest and incubated for 5 minutes. After the initial incubation, 25 μl/well of 2×ATP/biotinylated peptide is added and incubated for an additional 30 minutes. The reaction is terminated by the addition of 50 μl/well stop buffer (50 mM EDTA, pH 8.0). The reaction mixture (25 μl/well) is then transferred to a streptavidin coated plate (Perkin Elmer, Cat#4009-0010) containing 75 μl dH2O and incubated for 60 minutes. The plate is washed with 200 μl/well wash buffer (1×PBS, 0.05% Tween-20). After washing, 100 μl/well phospho-tyrosine mAb (1:1000 in wash buffer containing 1% BSA) is added and incubated for 60 minutes. After another round of washes, 100 μl/well europium labelled anti-mouse IgG (1:500 in wash buffer containing 1% BSA) is added and incubated for an additional 30 minutes. Following additional washes, 100 μl/well Delfia^(R) enhancement solution (Perkin Elmer, Cat#1244-105) is added and incubated for 45 minutes. Florescence is measured on a microplate reader (BMG Labtech., Germany) at 340 nm (excitation) and 615 nm (emission) for calculating % inhibition. Data generated can be analyzed further using Graphpad Prism (Graphpad software, San Diego Calif.) for determination of IC50.
Results: The results are as given below in Table 4A, 4B and 4C as % Inhibition or IC50 of c-Met

Counter-ions that a name gives are not always drawn. Like-named read-outs stand apart in the source and are kept apart here. Some results are limits rather than exact numbers.

Regarding `CNC(=O)CNC(=O)c1ccc(-c2ccc3nnn(Cc4ccc5ncccc5c4)c3n2)cc1` [Example 2, N-(2-(methylamino)-2-oxoethyl)-4-(3-(quinolin-6-ylmethyl)-3H-[1,2,3]triazolo[4,5-b]pyridin-5-yl)benzamide], the 50% growth inhibitory concentration (GI50) in assay [1] (Homo sapiens, MKN-45, Table 4A) fell in the range of 100 to 250 nM.

With `Cl.O=C(NOCCO)c1ccc(-c2ccc3nnn(Cc4cc5cccnc5cc4F)c3n2)cc1Cl` [Example 7a, 2-chloro-4-(3-((7-fluoroquinolin-6-yl)methyl)-3H-[1,2,3]triazolo[4,5-b]pyridin-5-yl)-N-(2-hydroxyethoxy)benzamide hydrochloride], the “MKN45 % inhibition @ 100 nM” value in assay [1] (Table 4A) is recorded as “A (A= ≧75 to 100%)”.

On to `Cl.O=C(NOCCO)c1c(F)cc(-c2ccc3nnn(Cc4ccc5ncccc5c4)c3n2)cc1F` [Example 8a, 2,6-difluoro-N-(2-hydroxyethoxy)-4-(3-(quinolin-6-ylmethyl)-3H-[1,2,3]triazolo[4,5-b]pyridin-5-yl)benzamide hydrochloride], for which the “MKN45 % inhibition @ 100 nM” value in assay [1] (Table 4A) is recorded as “C (C = ≧25-<50%)”.

Take `Cl.O=C(NOCCO)c1c(F)cc(-c2ccc3nnn(Cc4cc5cccnc5cc4F)c3n2)cc1F` [Example 9a, 2,6-difluoro-4-(3-((7-fluoroquinolin-6-yl)methyl)-3H-[1,2,3]triazolo[4,5-b]pyridin-5-yl)-N-(2-hydroxyethoxy)benzamide hydrochloride]: in assay [1] (Table 4A), the “MKN45 % inhibition @ 100 nM” value is “A (A= ≧75 to 100%)”. Moreover, in assay [1] (Table 4A, hydrochloride), the GI50 lay in the range of 25 to 50 nM.

For `Cc1cc(-c2ccc3nnn(Cc4ccc5ncccc5c4)c3n2)ccc1C(=O)NOCCO` [Example 25a, N-(2-hydroxyethoxy)-2-methyl-4-(3-(quinolin-6-ylmethyl)-3H-[1,2,3]triazolo[4,5-b]pyridin-5-yl)benzamide hydrochloride], in assay [1] (Table 4A, hydrochloride, 0.1 µM), the “MKN45 % inhibition @ 100 nM” value was “B (B = ≧50-<75%)”.

Consider `Cc1cc(-c2ccc3nnn(Cc4ccc5[nH]c(=O)ccc5c4)c3n2)ccc1C(=O)NOCCO` [Example 25d, N-(2-hydroxyethoxy)-2-methyl-4-(3-((2-oxo-1,2-dihydroquinolin-6-yl)methyl)-3H-[1,2,3]triazolo[4,5-b]pyridin-5-yl) benzamide], for which the inhibition at 0.1 µM in assay [2] (Table 4A) was < 25%.

On to `Cc1cc(-c2ccc3nnn(Cc4ccc5ncccc5c4)c3n2)ccc1C(=O)NOC[C@H](C)O` [Example 36, (S)—N-(2-hydroxypropoxy)-2-methyl-4-(3-(quinolin-6-ylmethyl)-3H-[1,2,3]triazolo[4,5-b]pyridin-5-yl)benzamide], for which the inhibition at 0.1 µM in assay [2] (Table 4A) is 75 to 100%.

Turning to `Cc1cc(-c2ccc3nnn(Cc4ccc5[nH]c(=O)ccc5c4)c3n2)ccc1C(=O)NOCC(C)(C)O` [Example 37, N-(2-hydroxy-2-methylpropoxy)-2-methyl-4-(3-((2-oxo-1,2-dihydroquinolin-6-yl)methyl)-3H-[1,2,3]triazolo[4,5-b]pyridin-5-yl)benzamide], the inhibition at 0.1 µM in assay [2] (Table 4A) was 50 to 75%.

Consider `Cc1cc(-c2ccc3nnn(Cc4ccc5ncccc5c4)c3n2)ccc1C(=O)NO` [Example 42, N-Hydroxy-2-methyl-4-(3-quinolin-6-ylmethyl-3H-[1,2,3]triazolo[4,5-b]pyridin-5-yl)-benzamide], for which, in assay [2] (Table 4A), the inhibition at 0.1 µM was in the range of 75 to 100%.

As to `CC(=O)OCCONC(=O)c1ccc(-c2ccc3nnn(Cc4ccc5ncccc5c4)c3n2)cc1C` [Example 43, 2-(2-methyl-4-(3-(quinolin-6-ylmethyl)-3H-[1,2,3]triazolo[4,5-b]pyridin-5-yl)benzamidooxy)ethyl acetate], the inhibition at 0.1 µM in assay [2] (Table 4A) was in the range of 75 to 100%.

Turning to `Cc1cc(-c2ccc3nnn(Cc4ccc5ncccc5c4)c3n2)ccc1C(=O)NOCCOC(=O)C(C)C` [Example 44, 2-(2-methyl-4-(3-(quinolin-6-ylmethyl)-3H-[1,2,3]triazolo[4,5-b]pyridin-5-yl)benzamidooxy)ethyl isobutyrate], the inhibition at 0.1 µM in assay [2] (Table 4A) fell in the range of 75 to 100%.

As to `Cc1cc(-c2ccc3nnn(Cc4ccc5ncccc5c4)c3n2)ccc1C(=O)NOCCOC(=O)C(C)(C)C` [Example 45, 2-(2-methyl-4-(3-(quinolin-6-ylmethyl)-3H-[1,2,3]triazolo[4,5-b]pyridin-5-yl)benzamidooxy)ethyl pivalate], in assay [2] (Table 4A), the inhibition at 0.1 µM lay within 75 to 100%.

For `Cc1cc(-c2ccc3nnn(Cc4ccc5ncccc5c4)c3n2)ccc1C(=O)NOCCOC(=O)c1ccccc1` [Example 46, 2-(2-methyl-4-(3-(quinolin-6-ylmethyl)-3H-[1,2,3]triazolo[4,5-b]pyridin-5-yl)benzamidooxy)ethyl benzoate], the inhibition at 0.1 µM in assay [2] (Table 4A) lay within 75 to 100%.

Consider `Cc1cc(-c2ccc3nnn(Cc4ccc5ncccc5c4)c3n2)ccc1C(=O)NOCCOC(=O)c1ccco1` [Example 47, 2-(2-methyl-4-(3-(quinolin-6-ylmethyl)-3H-[1,2,3]triazolo[4,5-b]pyridin-5-yl)benzamidooxy)ethyl furan-2-carboxylate], for which the inhibition at 0.1 µM in assay [2] (Table 4A) lay within 75 to 100%.

On to `NC(=O)N/N=C(\N)c1ccc2nnn(Cc3ccc4ncccc4c3)c2n1` [Example 52, 2-(amino(3-(quinolin-6-ylmethyl)-3H-[1,2,3]triazolo[4,5-b]pyridin-5-yl)methylene)hydrazinecarboxamide], for which the inhibition in assay [2] (Table 4A) was < 25%.

`C/C(=N\N1CC(=O)NC1=O)c1ccc2nnn(Cc3ccc4ncccc4c3)c2n1` [Example 54, (E/Z)-1-(1-(3-(quinolin-6-ylmethyl)-3H-[1,2,3]triazolo[4,5-b]pyridin-5-yl)ethylideneamino)imidazolidine-2,4-dione]: the inhibition in assay [2] (Table 4A) was 25 to 50%.

`CCNC(=S)N/N=C(\C)c1ccc2nnn(Cc3ccc4ncccc4c3)c2n1` [Example 55, N-ethyl-2-(1-(3-(quinolin-6-ylmethyl)-3H-[1,2,3]triazolo[4,5-b]pyridin-5-yl)ethylidene)hydrazinecarbothioamide]: the inhibition in assay [2] (Table 4A) is < 25%.

Take `C/C(=N\OCCNC(N)=O)c1ccc2nnn(Cc3ccc4ncccc4c3)c2n1` [Example 64, 1-(2-(1-(3-(quinolin-6-ylmethyl)-3H-[1,2,3]triazolo[4,5-b]pyridin-5-yl)ethylideneaminooxy)ethyl)urea]: the inhibition at 0.1 µM in assay [2] (Table 4A) fell in the range of 50 to 75%.

Consider `CN(C)CCCNC(=O)c1ccc(-c2ccc3nnn(Cc4ccc5ncccc5c4)c3n2)cc1` [Example 68, N-(3-Dimethylamino-propyl)-4-(3-quinolin-6-ylmethyl-3H-[1,2,3]triazolo[4,5-b]pyridin-5-yl)-benzamide dihydrochloride], for which the inhibition at 0.1 µM in assay [2] (Table 4A) is 75 to 100%.

In the case of `CN(C)CCNC(=O)c1ccc(-c2ccc3ncn(Cc4ccc5ncccc5c4)c3n2)cc1Cl` [Example 101, 2-chloro-N-(2-(dimethylamino)ethyl)-4-(3-(quinolin-6-ylmethyl)-3H-imidazo[4,5-b]pyridin-5-yl)benzamide], the inhibition in assay [2] (Table 4B) was < 25%.

`O=C(NOCCO)c1ccc(-c2ccc3ncn(Cc4ccc5ncccc5c4)c3n2)cc1Cl` [Example 113, 2-Chloro-N-(2-hydroxy-ethoxy)-4-(3-quinolin-6-ylmethyl-3H-imidazo[4,5-b]pyridin-5-yl)-benzamide]: the inhibition at 0.1 µM in assay [2] (Table 4B) was in the range of 75 to 100%.

Regarding `CC(C)(O)CONC(=O)c1ccc(-c2ccc3ncn(Cc4ccc5ncccc5c4)c3n2)cc1Cl` [Example 114, 2-Chloro-N-(2-hydroxy-2-methyl-propoxy)-4-(3-quinolin-6-ylmethyl-3H-imidazo[4,5-b]pyridin-5-yl)-benzamide], the inhibition at 0.1 µM in assay [2] (Table 4B) was in the range of 75 to 100%.

One may read the GI50 as the concentration that inhibits growth by half. The term inhibition denotes the share of the control response that was lost under treatment.
